Test results taken from patent US20220143148A1, “COMPOSITIONS AND METHODS FOR MODULATING CGRP SIGNALING TO REGULATE INTESTINAL INNATE LYMPHOID CELLS” (The Broad Institute, Inc., priority 2019, published 2022).

Assays:
lung ILC2s = conditions: co-stimulated with IL-33; cited from earlier work
intestinal KLRG1+ ILC2s = assay: Bulk RNA-seq of intestinal KLRG1+ ILC2s stimulated in vitro; format: cell-based, mouse
Text: To determine if α-CGRP can directly trigger signaling in ILC2s and impact their transcriptional states under inflammatory conditions, Applicants performed bulk RNA-seq of KLRG1^+ ILC2s isolated from the small intestine and stimulated in vitro with IL-25 alone or together with α-CGRP. […] Thus, α-CGRP inhibits IL-25-induced proliferation and activation of intestinal KLRG1+ILC2s.
The presence at homeostasis of α-CGRP receptors on ILC2s and α-CGRP's expression on ChAT^+ intestinal neurons led Applicants to hypothesize that it has an effect on ILC2s during homeostasis. To test this hypothesis, Applicants next measured the expression profiles of intestinal KLRG1^+ ILC2s stimulated in vitro by α-CGRP alone, and identified genes differentially expressed under this signal (FIG. 6D, Methods).
ILC2 culture. Sort-purified intestinal KLRG1^+ ILC2s were incubated in RPMI supplemented with 10% FCS, 10 mM Hepes, 1 mM sodium pyruvate, 10% FBS, 80 μm 2-mercaptoethanol, 2 mM glutamine, 100 U/ml penicillin, […] streptomycin, 100 ng/ml IL-2 and 100 ng/ml IL-7 in 96-well round bottom plate at 37° C. and 5% CO2. If indicated, the culture was supplemented with 100 ng/ml IL-25. For the in vitro proliferation assay, cells from different mice were pooled and labeled with CellTrace Violet, and then cultured at 1,000-1,500 cells per well with 10 μg/ml α-CGRP for 60 hours. When indicated, 10 μM forskolin or 1 μM SQ 22, 536 in DMSO was supplied and cells were cultured for 40 hours. For bulk RNA-seq, cells from individual mice were stimulated at 200 cells per well with 0.4 μg/ml α-CGRP for 3 hours. For bulk ATAC-seq, cells were stimulated with 0.4 μg/ml α-CGRP for 2 hours.
Bulk RNA-seq. 200 ILC2s from each condition were lysed in 10 ul TCL buffer plus 0.5% 2-Mercaptoethanol. Libraries were processed with SMART-Seq2 (Picelli et al., 2013) with at least three replicates per condition, and paired-end sequenced (75 bp×2) with a […] Nextseq 500 high output V2 kit.
Reads were aligned to the mouse reference genome (NCBI 38, mm10) using Bowtie (Langmead et al., 2009) with default parameters, and expression abundances were estimated using RSEM software (Li and Dewey, 2011). The differential gene expression analysis was performed with edgeR (Robinson et al., 2010) with default parameters.

intestinal ILC2s = assay: OVA food allergy model with intragastric α-CGRP; format: in vivo, mouse; conditions: α-CGRP intragastrically together with OVA, pre-sensitized mice; P=0.02, P=0.009, t-test
Text: Intraperitoneal administration of α-CGRP impaired IL-25-induced expansion of KLRG1^+ ILC2s (FIGS. 5B and 12A), consistent with the in vitro results. Recent work has shown that intestinal KLRG1^+ ILC2s can migrate to mesenteric lymph nodes (mLNs) and other tissues during inflammation via sphingosine 1-phosphate (S1P)-mediated chemotaxis (Huang et al., 2018). To determine whether α-CGRP primarily impacts intestinal or mLN ILC2s, Applicants relied on the fact that intestinal GATA3^+ ILC2s are generally phenotypically KLRG1^+ST2^− (data not shown), whereas mLN ILC2s are mainly ST2^+ at steady state (FIG. 5C). IL-25 administration increased the frequency of both KLRG1^+ST2^− inflammatory ILC2s and ST2^+ ILC2s in mLNs (FIGS. 5C-E and 12B). […] Thus, α-CGRP preferentially regulates the response of intestinal KLRG1^+ST2^− ILC2s. […] Taken together, α-CGRP antagonized expansion of intestinal KLRG1^+ ILC2s in two different type 2 inflammatory models.
To induce allergic reaction to OVA, 6 to 7 weeks old mice were sensitized twice, two weeks apart, with 50 μg of OVA plus 1 mg of aluminum potassium sulfate adjuvant via intraperitoneal injection. Two weeks later, mice were orally administered with 50 mg of OVA on every other day for a total of five times. […]
Flow cytometry and cell sorting. […] Flow cytometry was performed on Cytoflex (Beckman Coulter) and analyzed with FlowJo software. […]

expression of adenylate cyclase-mediated GPCR signaling genes (Adrb2, Adora2a, Pde4b, Akap12) and cAMP response genes (Areg, Crem, Il5) (intestinal KLRG1+ ILC2s; α-CGRP alone in vitro): induced expression
Substance: α-CGRP: neuropeptide alpha-calcitonin gene-related peptide, encoded by exon 5 of Calca; administered as peptide
IL-5 expression in lung ILC2s (lung ILC2s): increases
Il5 expression (intestinal KLRG1+ ILC2s; IL-25 together with α-CGRP in vitro): further induced
IL-25-induced activation signature (intestinal KLRG1+ ILC2s; IL-25 together with α-CGRP in vitro, adjusted P<0.001, t-test): significantly suppressed
expression of cell cycle arrest genes (Cdkn1a, Gadd45a, Akap12) and negative regulators of ILC2 expansion (Adrb2, Pdcd1) (intestinal KLRG1+ ILC2s; α-CGRP alone in vitro): induced expression
expansion of intestinal ILC2s in a food allergy model (intestinal ILC2s): significantly suppressed
